Test results taken from US20110046102A1, “AZABICYCLIC COMPOUNDS, PREPARATION THEREOF AND USE OF SAME AS DRUGS, ESPECIALLY BETA-LACTAMASE INHIBITORS” (Novexel, priority 2008, published 2011).
Where a name gives a salt, the structure may show the parent alone.

What was measured:
E. coli TEM1 β-lactamase = target: T1, E. coli TEM1 β-lactamase (Escherichia coli, UniProt P62593); assay: β-lactamase inhibiting activity on isolated enzyme (Nitrocefin hydrolysis), TEM1; format: biochemical; settings: 5 min pre-incubation, 100 μM Nitrocefin, pH 7.0, 37° C., mean of at least 2 experiments, read-out: IC50 enzyme inhibition
T1 construct: The β-lactamases are isolated from bacterial strains resistant to penicillins and cephalosporins; endogenous in cells; host or cells: E. coli 250HT21 (soluble fraction of French-press lysate)
Protocol: (§1) A. Preparation of Tem-1 and P99 β-lactamases
(§2) The β-lactamases are isolated from bacterial strains resistant to penicillins and cephalosporins (Tem 1 and P99 are respectively produced by E. coli 250HT21 and E.Cloacae 293 HT6).
(§3) The bacteria are cultured in 37g/l brain-heart infusion (DIFCO), at 37° C. They are harvested at the end of the exponential phase, cooled and centrifuged. The bacterial residues are dissolved in 50 mM sodium phosphate buffer pH 7.0 and again centrifuged. The bacteria are dissolved in two volumes of this same buffer and lysed using a French-Press held at 4° C. After centrifuging 1 h at 100 000g, at 4° C., the supernatants containing the soluble fraction of the bacterial extracts are collected and frozen to −80° C.
(§4) B. Determination β-lactamase Activity
(§5) The method uses Nitrocefin (OXOID) as substrate, a chromogenic cephalosporin, whose hydrolysis product by β-lactamases is red and absorbed at 485 nm.
(§6) β-lactamase activity is determined kinetically by measuring the variation in absorbance at 485 nm resulting from hydrolysis of the substrate on a plate spectrophotometer (Spectra Max Plus by Molecular Devices). Experiments are conducted at 37° C. The quantity of enzyme was normalized and measurements are taken at initial velocity.
(§7) C. Determination of β-Lactamase Inhibiting Activity
(§8) The measurements are taken with pre-incubation of the enzyme and of the inhibitor (5 min). The products are assayed at 11 concentrations. The reaction mixture contains 100 μM Nitrocefin and 50 mM sodium phosphate buffer, pH 7.0, and 0.1 mg/mL bovine serum albumin.
(§9) Hydrolysis velocities are measured with and without inhibitor. The inhibitor concentration is determined which inhibits 50% of the Nitrocefin hydrolysis reaction by the enzyme (IC50). Data is processed using GraFit software (Erithacus Software). The IC50 values are the mean of the IC50s obtained in at least 2 different experiments.

[1] = target: T2, E. cloacae P99 β-lactamase (Enterobacter cloacae, UniProt P05364); assay: β-lactamase inhibiting activity on isolated enzyme (Nitrocefin hydrolysis), P99; format: biochemical; settings: 5 min pre-incubation, 100 μM Nitrocefin, pH 7.0, 37° C., mean of at least 2 experiments, read-out: IC50 enzyme inhibition
T2 construct: The β-lactamases are isolated from bacterial strains resistant to penicillins and cephalosporins; endogenous in cells; host or cells: E. cloacae 293HT6 (soluble fraction of French-press lysate)
Protocol: as §1, §2, §3, §4, §5, §6, §7, §8, §9

E. coli 250BE6 (TEM3) = assay: MIC of ceftazidime alone or with inhibitor, micro-dilution in liquid medium, strain 250BE6; format: cell-based; settings: 24 h; for MIC of CAZ in combination with inhibitor (CAZ-Inhibitor): E. coli 250BE6 TEM3, inhibitor at constant 4 μg/mL
Protocol: (§10) II/ The evidenced β-lactamase inhibiting activity potentialises the antibacterial activity of antibiotics of β-lactam type, and therefore leads to a synergic effect, as is shown by the results given below which express the minimum inhibitory concentration in vitro (MIC in μg/ml), against a certain number of pathogenic microorganisms, and of combinations of ceftazidime (<<CAZ >>) with formula (I) compounds at a concentration of 4 mg/l. Operations are as follows using the so-called micro-dilution method in liquid medium.
(§11) A series of β-lactam concentrations are prepared in the presence of a constant concentration (4 mg/l) of the product to be assayed, each is then seeded with various bacterial strains.
(§12) After 24-hour incubation in an oven at 37° C. growth inhibition is assessed via the lack of any bacterial growth, which allows determination of the minimum inhibitory concentrations (MICs) for each strain, expressed in milligrams/l.

[2] = tested on: E. cloacae 293HT6 (P99 AmpC); assay: MIC of ceftazidime alone or with inhibitor, micro-dilution in liquid medium, strain 293HT6; format: cell-based; settings: 24 h; for MIC of CAZ in combination with inhibitor (CAZ-Inhibitor): inhibitor at constant 4 μg/mL
Protocol: as §10, §11, §12

E. cloacae 293HT4 (AmpC) = assay: MIC of ceftazidime alone or with inhibitor, micro-dilution in liquid medium, strain 293HT4; format: cell-based; settings: 24 h; for MIC of CAZ in combination with inhibitor (CAZ-Inhibitor): inhibitor at constant 4 μg/mL
Protocol: as §10, §11, §12

[3] = tested on: C. freundii 261GR6 (AmpC); assay: MIC of ceftazidime alone or with inhibitor, micro-dilution in liquid medium, strain 261GR6; format: cell-based; settings: 24 h; for MIC of CAZ in combination with inhibitor (CAZ-Inhibitor): inhibitor at constant 4 μg/mL
Protocol: as §10, §11, §12

[4] = Enterobacter cloacae, no inhibitor, read-out: MIC CAZ alone

T1 sequence (P62593 24-286 limits assumed): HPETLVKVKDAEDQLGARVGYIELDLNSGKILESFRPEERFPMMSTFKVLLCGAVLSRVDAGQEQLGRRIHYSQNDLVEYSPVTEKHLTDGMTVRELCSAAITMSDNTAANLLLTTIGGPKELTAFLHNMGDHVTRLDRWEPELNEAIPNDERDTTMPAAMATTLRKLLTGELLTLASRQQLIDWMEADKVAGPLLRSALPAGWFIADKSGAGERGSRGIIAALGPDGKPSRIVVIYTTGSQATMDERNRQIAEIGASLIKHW
T2 sequence (P05364 21-381): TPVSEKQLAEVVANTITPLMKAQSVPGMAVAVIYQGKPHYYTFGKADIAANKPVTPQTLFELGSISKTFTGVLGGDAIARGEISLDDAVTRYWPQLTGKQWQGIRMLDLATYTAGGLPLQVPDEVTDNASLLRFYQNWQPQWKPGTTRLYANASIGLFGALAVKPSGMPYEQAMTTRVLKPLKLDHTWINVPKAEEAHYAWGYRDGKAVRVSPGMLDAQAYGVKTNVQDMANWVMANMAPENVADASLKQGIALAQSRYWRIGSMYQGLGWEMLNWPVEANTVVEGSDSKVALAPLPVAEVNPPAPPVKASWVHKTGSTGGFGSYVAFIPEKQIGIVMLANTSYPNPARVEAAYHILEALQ

Structure (SMILES) | IC50 (E. coli TEM1 β-lactamase) [nM] | IC50 [1] [nM] | MIC of CAZ in combination with inhibitor (CAZ-Inhibitor) (E. coli 250BE6 (TEM3)) [µg/mL] | MIC of CAZ in combination with inhibitor (CAZ-Inhibitor) [2] [µg/mL] | MIC of CAZ in combination with inhibitor (CAZ-Inhibitor) (E. cloacae 293HT4 (AmpC)) [µg/mL] | MIC of CAZ in combination with inhibitor (CAZ-Inhibitor) [3] [µg/mL] | MIC (E. coli 250BE6 (TEM3); Escherichia coli, read-out: MIC CAZ alone) [µg/mL] | MIC [2, 4] [µg/mL] | MIC (E. cloacae 293HT4 (AmpC); [4]) [µg/mL] | MIC ([3]; Citrobacter freundii, no inhibitor, read-out: MIC CAZ alone) [µg/mL]
NC(=O)[C@@H]1CC[C@@H]2CN1C(=O)N2OC(F)C(=O)O (mixture of isomers) [Example 2, trans-(1R,2S,5R)-6-(1-fluoro-2-hydroxy-2-oxoethoxy)-7-oxo-1,6-diazabicyclo[3.2.1]octane-2-carboxamide] | 2 | 4600 | 0.25 | 8 | 8 | 4 |  |  |  | 
CC(C)(O/N=C(\C(=O)N[C@@H]1C(=O)N2C(C(=O)[O-])=C(C[n+]3ccccc3)CS[C@H]12)c1csc(N)n1)C(=O)O [CAZ, ceftazidime, reference compound] |  |  |  |  |  |  | > 32 | > 32 | > 32 | > 32
NC(=O)[C@@H]1CC[C@@H]2CN1C(=O)N2OCC(=O)O [Example 1, trans-(1R,2S,5R)-6-(2-hydroxy-2-oxoethoxy)-7-oxo-1,6-diazabicyclo[3.2.1]octane-2-carboxamide, reference compound] | 720 | 54000 | 2 | >32 | >32 | >32 |  |  |  | 
NC(=O)[C@@H]1CC[C@@H]2CN1C(=O)N2OC(F)(F)C(=O)O [Example 3, Sodium salt of trans-(1R,2S,5R)-6-(1,1-difluoro-2-hydroxy-2-oxoethoxy)-7-oxo-1,6-diazabicyclo[3.2.1]octane-2-carboxamide] | 0.8 | 2200 | 0.25 | 1 | 0.5 | 1 |  |  |  | 
